Experimental data from patent US20170008888A1 (KYORIN PHARMACEUTICAL CO., LTD., priority 2014, published 2017).
Read-outs that look alike come from different tables or passages of the source.

Legend:
TAF1L = target: T1, TAF1L (Homo sapiens, UniProt Q8IZX4); test: Bromodomain binding assay: TAF1L
T1 construct: made in house; host or cells: E. coli host derived from the BL21 strain (T7 phage lysate)
Procedure: T7 phage strains displaying bromodomains were grown in parallel in 24-well blocks in an E. coli host derived from the BL21 strain. E. coli were grown to log-phase and infected with T7 phage from a frozen stock (multiplicity of infection=0.4) and incubated with shaking at 32° C. until lysis (90-150 minutes). The lysates were centrifuged (5,000×g) and filtered (0.2 μm) to remove cell debris. […] The liganded beads were blocked with excess biotin and washed with blocking buffer (SeaBlock (Pierce), 1% BSA, 0.05 Tween 20, 1 mM DTT) to remove unbound ligand and to reduce non-specific phage binding. […] Test compounds (T62 and 46) were prepared as 1000× stocks in 100% DMSO and subsequently diluted 1:10 in monoethylene glycol (MEG) to create stocks at 100× the screening concentration (resulting stock solution is 10% DMSO/90% MEG). The compounds were then diluted directly into the assays such that the final concentration of DMSO and MEG were 0.1% and 0.9%, respectively. All reactions were performed in polystyrene 96-well plates in a final volume of 0.135 ml. […] The bromodomain concentration in the eluates was measured by qPCR. Compounds were assayed for binding activity against a panel of 40 bromodomain-containing proteins.

[1] = test system: collagen-induced arthritis mouse model; test: Collagen-induced arthritis (CIA) mouse model: histopathology of tibiofemoral and tarsal/phalangeal joints; type: in vivo, mouse (DBA/1J)
[2] = test system: human fetal lung fibroblasts (HFL-1); test: TGF-β-induced fibrotic response (α-SMA expression) in HFL-1; type: cell-based; conditions: HFL1, 2 ng/ml TGF-β1, 48 h, Western blot, read-out: Inhibition of α-SMA expression, EC50 (μM), HFL-1
Procedure: Nontransformed, human fetal lung fibroblasts (HFL-1) were obtained from ATCC (Manassas, Va.) and maintained in F12K media containing 10% (v/v) charcoal-dextran treated, heat inactivated FBS (Omega Scientific, Tarzana, Calif.). Primary lung fibroblasts isolated from a patient diagnosed with asthma were obtained from Lonza (Allendale, N.J.) and maintained in FGM-2 fibroblast growth medium (Lonza). Cells were seeded at a density to provide 50-60% confluence after an overnight incubation at 37° C. in a humidified atmosphere at 5% CO2. […] Protein content was determined using the Bio-Rad Dc Protein kit (Bio-Rad Laboratories, Hercules, Calif.), and normalized prior to adding an equal volume of 2× Laemmli sample buffer (Sigma). Proteins in the whole cell lysates were resolved via SDS-PAGE gel electrophoresis, and α-SMA was detected via Western blot analysis using a rabbit anti-human α-SMA polyclonal antibody (Abcam, Cambridge, Mass.). α-SMA signal was normalized to the signal of β-actin as detected using mouse anti-human […] antibody (Cell Signaling Technology). DyLight 680 and 800 conjugated secondary antibodies were used and the infrared signals were detected using the Odyssey Imaging System (LI-COR Biotechnology, Lincoln, Nebr.).

[3] = test system: TLR2 signaling in primary human umbilical vein endothelial cells; test: Cytokine response to TLR2 agonism (Pam3CysK4) in primary HUVEC (ELISA); type: cell-based; conditions: for IL-8: 5 μM inhibitor
Text: It has been reported in the literature that that ERK5 mediates TLR2-dependent inflammatory signaling in several cell types including human umbilical vein endothelial cells (HUVEC). See Wilhelmsen et al., J Biol Chem. 2012; 287:26478-94. Wilhelmsen et al. further reported that MEK1 negatively regulates TLR2 signaling in HUVECs, with pharmacological inhibition of MEK1 augmenting (IL-6, G-CSF, GM-CSF) or not changing (IL-8) pro-inflammatory cytokine release in response to TLR2 stimulation.
In this example, the following commercially available inhibitors were tested:
The results were compared with test compound 61.
Pooled primary human umbilical vein endothelial cells (HUVEC) were obtained from Lonza (Allendale, N.J.) and maintained in either complete EGM-2 defined media (Lonza) or Medium 200 supplemented with Low Serum Growth Supplement (Life Technologies, Grand Island, N.Y.). Cells at low passage (<5) were seeded at 4e5 cells/ml and allowed to adhere overnight at 37° C. in a humidified atmosphere at 5% CO2. Cells were pre-treated with test compounds for 1 h prior to TLR2 or TLR4 stimulation. To test for the effects of TLR2 agonism, the TLR2 agonist peptide Pam3CysK4 (Santa Cruz Biotechnology, Dallas, Tex.) was used at 10 μg/ml. PHC-SKKK (Enzo Life Sciences, Farmingdale, N.Y.) served as the negative control peptide. To test for the effects of TLR4 agonism, LPS from E. coli 0111:B4 (EMD Millipore, Billerica, Mass.) was used at 100 ng/ml. Cells were incubated for 22 hr, after which the supernatant was collected and analyzed for cytokine concentrations by ELISA (Life Technologies). Absorbance at 450 nm was read using the Wallac 1420 Victor^2 multilabel microplate reader (Perkin Elmer, Waltham, Mass.).

[4] = Group 3 (n=10): 60 mg/kg PO BID D21-D42
[5] = Group 3: 60 mg/kg PO BID D21-D42

T1 sequence (Q8IZX4 1517-1626 limits assumed): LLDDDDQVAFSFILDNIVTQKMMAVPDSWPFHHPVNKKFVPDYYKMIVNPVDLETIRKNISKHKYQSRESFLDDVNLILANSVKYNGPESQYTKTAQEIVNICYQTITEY

## CCOc1cc(C(=O)N[C@H]2CC[C@H](O)CC2)ccc1Nc1cc2c(cn1)N(C)C(=O)c1ccccc1N2C [Compound T62]
TAF1L; read-out: Kd (nM) TAF1L
  Kd: 19000 nM
TAF1L; read-out: Kd for binding to TAF1L
  Kd: > 20000 nM

## CCOc1cc(C(=O)N2CCC(N3CCCC3)CC2)ccc1Nc1cc2c(cn1)N(C)C(=O)c1ccccc1N2C [Compound 46, 3-(2-Ethoxy-4-(4-(pyrrolidin-1-yl)piperidine-1-carbonyl)phenylamino)-5,11-dimethyl-5H-benzo[e]pyrido[3,4-b][1,4]diazepin-10(11H)-one]
[1]; Day 42, H&E
  histopathology of hind-limb joints (knee, paw/tarsal), in words: nearly twice as effective as Tofacitinib at protecting the tarsal joints
[1]; [4]
  Animals with normal tarsal joints (% of total n in group): 70%
  Number of animals with normal tarsal joints: 7
[1]; [5]
  Tibiofemoral joint score: cartilage erosion/ulceration: 12.5
  Tibiofemoral joint score: inflammation: 15.0
  Tibiofemoral joint score: periosteal proliferation/erosion: 3.8
  Tibiofemoral joint score: synovial hyperplasia: 3.0

## CCOc1cc(C(=O)N2CCC(N3CCN(C)CC3)CC2)ccc1Nc1cc2c(cn1)N(C)C(=O)c1ccccc1N2C [Compound 61]
[2]
  EC50: 0.75 to 2.3 µM
[3]; +10 μg/ml PHC-SKKK (negative control peptide), 22 hr
  IL-8: 0 ± 17 pg/mL
[3]; +10 μg/ml Pam3CysK4, 22 hr
  IL-8: 133 ± 9 pg/mL
[3]; summary of Table 22
  IL-8 response to TLR2 (Pam3CysK4) stimulation, in words: reduced the IL-8 response
